Measurements published in patent EP4545076A1, “LAT1 SELECTIVE INHIBITORS FOR USE IN THE TREATMENT OF ADVERSE VENTRICULAR -REMODELLING AND OF HEART FAILURE” (Fundació Hospital Universitari Vall d'Hebron - Institut de …, priority 2023, dated 2025).

Assays:
Assay type in all cases: in vivo, C57BL/6N mice
[1] = tested on: genes involved in BCAA catabolism; experiment: BCAA catabolism gene expression (microarray, RT-PCR) in hearts of TAC mice; conditions: 12.5 mg/kg/day ip
Method: (§1) Twelve weeks C57BL/6N old mice were anesthetised with ketamine/xylazine (100 mg/kg and 10 mg/kg, respectively) and mechanically ventilated (SAR-830/AP, CWE). The transverse aortic arch was ligated by tying a 6-0 silk suture around the aorta and a 27G needle to yield a partial and reproducible constriction when the needle was removed. In sham animals, the aortic arch was visualized but not banded. Thorax was closed and analgesia was administrated (buprenorphine at 0.1 mg/kg every 12 hours until 48 hours). Mice were euthanized by lethal intraperitoneal dose of sodium pentobarbital (100 mg/kg) (Cat. No. 4579, Tocris).
(§2) The LAT1 inhibitor JPH203 (Cat. No. S8667) was intraperitoneally (ip) and chronically administered, starting the following day after TAC surgery.
(§3) Mice were randomly distributed to receive JPH203 at 12.5 mg/kg/day (prepared at 2 mg/ml of 40% 2-hydroxipropil-beta-cyclodextrin in saline). Sham and control groups received JPH203 vehicle (40% 2-hydroxipropil-beta-cyclodextrin in saline). Mice were euthanized 2 or 5 weeks after surgery.
Total RNA was extracted from heart samples using the NZY Total RNA Isolation kit (Cat. No. MB13402, NZY Tech) following the manufacturer's protocol.
RNA was reverse transcribed into cDNA using a High-Capacity cDNA Reverse Transcription kit (Cat. No. 4368814, Applied Biosystems) following manufacturer's instructions. The thermal cycler (Bio-Rad) was programmed to run a single cycle of 25 °C for 10 min, 37 °C for 120 min, 85 °C for 5 min and kept at 4 °C until use.
For determination of differential gene expression, RNA was isolated, as previously described, from mice myocardial samples and its quality was analysed by capillary electrophoresis (Bioanalyzer 2100, Agilent) and amplified using the WT Plus Reagent Kit-HT (Applied Biosystems, Thermo Fisher Scientific). Microarray service was done by the Molecular Diagnosis and Genomic platforms of the High Technology Unit (VHIR) using Clariom S type arrays specific for mouse transcriptome (plate format) (Applied Biosystems). […]

myocardial BCAA content = experiment: LC-MS/MS of BCAA and leucine metabolites in heart extracts of TAC mice
Method: as §1, §2, §3
After 5 hours of fasting, mice were injected with an intraperitoneal dose of L-Leucine-^13C6, ^15N (Cat. No. 608068, Sigma-Aldrich) at 0.1 mg/g 30 minutes before euthanizing with a lethal injection of sodium pentobarbital resuspended in saline and injected at 100 mg/kg (Cat. No. 4579, Tocris).
The levels of Branched-Chain Amino Acids (BCAA) and their main metabolites in biological samples will be determined by Liquid Chromatography tandem Mass Spectrometry (LC-MS/MS). Briefly, the determination of amino acids (BCAA but also amino acids involved in glutaminolysis) was performed by using a hydrophilic interaction chromatography (HILIC) with an amide column. After addition of the adequate internal standard (containing labelled analogues), protein precipitation with organic solvents and centrifugation, the supernatant was injected into the LC-MS/MS system operating in a Selected Reaction Monitoring (SRM) method by acquiring two transitions for each compound. The determination of α-ketoacids, α-hydroxy acids and SCFA (including the main BCAA metabolites and other compounds related with glutaminolysis) was performed by oBHA derivatization. The internal standard (containing labelled analogues) was added into the sample and the mixture was derivatized by adding a derivatizing mixture consisting in oBHA:EDC (1:1) in pyridine. After reaction for 1 h at room temperature, 1 mL of milliQ water and 4 mL of ethyl acetate was added to perform a liquid-liquid extraction. […] Quantification was performed by means of external calibration using authentic referent material. […] Several quality control samples (QCs) were analysed with every analytical batch with the aim of checking the inter-batch robustness of the results. […]

heart hypertrophy = experiment: Cardiac hypertrophy in Transverse Aortic Constriction (TAC) mouse model; conditions: 12.5 mg/kg/day ip, vs control group
Method: as §1, §2, §3
(§4) Mice underwent transthoracic echocardiography at baseline (before surgery) and at 1, 2 and 5 weeks after surgery. Echocardiography was performed using a Prospect T1 Preclinical High Frequency Ultrasound System with a PB406e Probe 40MHz transducer (S-Sharp) applied to the shaved chest wall of mice anesthetized with isoflurane. The ejection fraction (EF), the left ventricular end-systolic (LVESd) and diastolic (LVEDd) internal diameters, left ventricular anterior wall (LVAW) thickness and left ventricular posterior wall (LVPW) thickness were measured in M-mode recordings.
Hypertrophy was calculated as heart weight-to-tibia length ratio. Echocardiographic parameters like IVS and LVPW thicknesses, as well as BNP and Myh7 mRNA levels, are the common parameters used to define myocardial hypertrophy.

interstitial collagen = experiment: Cardiac fibrosis in Transverse Aortic Constriction (TAC) mouse model; conditions: 12.5 mg/kg/day ip
Method: as §1, §2, §3
Hearts were fixed in buffered 4% paraformaldehyde and embedded in paraffin for histological evaluation. The amount of interstitial collagen deposition was determined in 4 µm transverse sections at the papillary muscles level stained with Picrosirius red (Sigma-Aldrich). At least ten random photomicrographs per animal were taken with the Leica DM IRBE Inverted Fluorescence Microscope at x200 magnification. The analysis was performed using Image J 1.50 Software. Interstitial fibrosis was expressed as the percentage of fibrotic area with respect to total area under quantification, perivascular fibrosis was manually excluded from the analysis.

[2] = tested on: heart failure induced by aortic stenosis; experiment: Ventricular dilatation, cardiac function (echocardiography) and pulmonary oedema in TAC mouse model; conditions: after 5 weeks of TAC surgery, 12.5 mg/kg/day ip, vs control group
Method: as §1, §2, §3, §4

[3] = 13C,15N-leucine ip 30 minutes before heart extraction, 2 weeks of TAC, 12.5 mg/kg/day ip

Compound: Nc1cc(COc2c(Cl)cc(C[C@H](N)C(=O)O)cc2Cl)c2oc(-c3ccccc3)nc2c1 [JPH203, O-[(5-amino-2-phenyl-1,3-benzoxazol-7-yl)methyl]-3,5-dichloro-L-tyrosine]
- reduction in the expression of PP1MK ([1]; RT-PCR, hearts, vs control hearts, P=0.013): significantly attenuated
- reduction in the expression of BCKDHB ([1]; RT-PCR, hearts, vs control hearts, P=0.015): significantly attenuated
- downregulation of genes involved in BCAA catabolism induced by TAC surgery ([1]; microarray, myocardial samples, JPH203 treated vs sham mice): attenuates the downregulation
- increase in the ratio between the plasma and myocardial content of 13C6,15N-leucine (leucine uptake) (myocardial BCAA content; [3]): prevented these alterations
- reduction in the levels of the 13C6,15N-leucine metabolite 13C-HMG (myocardial BCAA content; [3]): prevented these alterations
- reduction in the levels of the 13C6,15N-leucine metabolite 13C-isovaleric acid (myocardial BCAA content; [3]): prevented these alterations
- increase in the myocardial content of BCAA (valine, leucine and isoleucine) (myocardial BCAA content; LC-MS/MS, heart extracts after 2 weeks of TAC surgery, chronic administration 12.5 mg/kg/day ip): significantly attenuated
- attenuation of the increase in HW/TL ratio (heart hypertrophy; 5 weeks of aortic stenosis, P<0.001): 33%
- attenuation of the increase in MyH7/MyH6 ratio (heart hypertrophy; RT-PCR, P<0.001): 44%
- attenuation of the increase in BNP expression (heart hypertrophy; RT-PCR, P=0.001): 65%
- reduction of posterior wall thickness (heart hypertrophy; echocardiography, diastole, P=0.006): 28%
- reduction of anterior wall thickness (heart hypertrophy; echocardiography, diastole, P=0.026): 30%
- reduced interstitial collagen deposition (interstitial collagen; Picrosirius Red stained heart sections, P<0.001): 57%
- attenuation in the expression of collagen III (interstitial collagen; RT-PCR, myocardial homogenates after two weeks of TAC surgery, P=0.002): 58%
- attenuation in the expression of collagen I (interstitial collagen; RT-PCR, myocardial homogenates after two weeks of TAC surgery, P=0.003): 56%
- attenuation of the development of pulmonary oedema (water content in lungs) ([2]; P<0.001): 56%
- attenuation of cardiac dysfunction (reduction in ejection fraction) ([2]; P=0.030): 38%
- reduction of the diastolic volume (LVEDV) ([2]; echocardiography, P=0.017): 60%
- reduction of the systolic volume (LVESV) ([2]; echocardiography, P=0.021): 51%
